The record followed here is patent US12012409B2, “Bicyclic heterocycles as FGFR inhibitors” (Incyte Corporation, priority 2020, dated 2024).

What all share (format): biochemical
Holding throughout (details): wild-type un-phosphorylated protein; pre-incubated for 4 hours; ATP near or below Km

The target in test [1] is wild-type un-phosphorylated FGFR2 (Homo sapiens, UniProt P21802). The test can be described thus: FGFR Enzymatic Assay (FRET peptide phosphorylation), FGFR2.
Test [2] addresses wild-type un-phosphorylated FGFR1 (Homo sapiens, UniProt P11362). The experiment in a line: FGFR Enzymatic Assay (FRET peptide phosphorylation), FGFR1.
Test [3] has as its target wild-type un-phosphorylated FGFR3 (Homo sapiens, UniProt P22607). The test can be described thus: FGFR Enzymatic Assay (FRET peptide phosphorylation), FGFR3.
Test [4] has as its target wild-type un-phosphorylated FGFR4 (Homo sapiens, UniProt P22455). The experiment in a line: FGFR Enzymatic Assay (FRET peptide phosphorylation), FGFR4. The procedure: The inhibitor potency of the exemplified compounds was determined in an enzyme discontinuous assay that measures peptide phosphorylation using FRET measurements to detect product formation. Inhibitors were serially diluted in DMSO and a volume of 0.2 μL was transferred to the wells of a 384-well plate. […] Appropriate controls (enzyme blank and enzyme with no inhibitor) were included on the plate. […] The ATP Km values were pre-determined in a separate series of experiments. […] The plate was allowed to equilibrate for ˜10 minutes at ambient temperature before scanning on a PheraStar plate reader (BMG Labtech) instrument.
Either GraphPad prism or XLfit was used to analyze the data. The IC50 values were derived by fitting the data to a four parameter logistic equation producing a sigmoidal dose-response curve with a variable Hill coefficient. Prism equation: Y=Bottom+(Top−Bottom)/(1+10^((LogIC50−X)*Hill slope)); XLfit equation: Y=(A+((B−A)/(1+((X/C)^D)))) where X is the logarithm of inhibitor concentration and Y is the response.
The data in Table 1 was measured in wild-type un-phosphorylated FGFR1, FGFR2, FGFR3 and FGFR4 protein.

Sequence of wild-type un-phosphorylated FGFR4 (P22455 22-802): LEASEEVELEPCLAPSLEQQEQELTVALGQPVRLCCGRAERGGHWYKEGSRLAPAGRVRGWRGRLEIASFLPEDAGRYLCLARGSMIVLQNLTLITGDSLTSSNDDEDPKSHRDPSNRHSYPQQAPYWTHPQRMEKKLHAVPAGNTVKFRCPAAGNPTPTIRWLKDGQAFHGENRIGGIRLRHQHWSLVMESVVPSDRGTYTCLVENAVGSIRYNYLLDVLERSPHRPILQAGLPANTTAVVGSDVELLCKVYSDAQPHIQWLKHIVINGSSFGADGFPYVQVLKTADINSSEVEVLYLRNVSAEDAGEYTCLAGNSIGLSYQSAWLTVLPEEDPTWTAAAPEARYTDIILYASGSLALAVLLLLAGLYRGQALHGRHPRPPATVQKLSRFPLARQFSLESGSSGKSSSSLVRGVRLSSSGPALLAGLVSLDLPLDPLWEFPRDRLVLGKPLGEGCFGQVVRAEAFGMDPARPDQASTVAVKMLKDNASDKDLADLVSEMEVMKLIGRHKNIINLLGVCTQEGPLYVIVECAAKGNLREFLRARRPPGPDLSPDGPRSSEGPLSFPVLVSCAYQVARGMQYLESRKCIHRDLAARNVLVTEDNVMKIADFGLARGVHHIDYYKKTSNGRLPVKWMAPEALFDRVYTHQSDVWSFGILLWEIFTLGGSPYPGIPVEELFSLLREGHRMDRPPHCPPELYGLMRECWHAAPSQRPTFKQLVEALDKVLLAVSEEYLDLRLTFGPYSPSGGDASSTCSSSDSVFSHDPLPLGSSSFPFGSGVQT
Sequence of wild-type un-phosphorylated FGFR3 (P22607 23-806): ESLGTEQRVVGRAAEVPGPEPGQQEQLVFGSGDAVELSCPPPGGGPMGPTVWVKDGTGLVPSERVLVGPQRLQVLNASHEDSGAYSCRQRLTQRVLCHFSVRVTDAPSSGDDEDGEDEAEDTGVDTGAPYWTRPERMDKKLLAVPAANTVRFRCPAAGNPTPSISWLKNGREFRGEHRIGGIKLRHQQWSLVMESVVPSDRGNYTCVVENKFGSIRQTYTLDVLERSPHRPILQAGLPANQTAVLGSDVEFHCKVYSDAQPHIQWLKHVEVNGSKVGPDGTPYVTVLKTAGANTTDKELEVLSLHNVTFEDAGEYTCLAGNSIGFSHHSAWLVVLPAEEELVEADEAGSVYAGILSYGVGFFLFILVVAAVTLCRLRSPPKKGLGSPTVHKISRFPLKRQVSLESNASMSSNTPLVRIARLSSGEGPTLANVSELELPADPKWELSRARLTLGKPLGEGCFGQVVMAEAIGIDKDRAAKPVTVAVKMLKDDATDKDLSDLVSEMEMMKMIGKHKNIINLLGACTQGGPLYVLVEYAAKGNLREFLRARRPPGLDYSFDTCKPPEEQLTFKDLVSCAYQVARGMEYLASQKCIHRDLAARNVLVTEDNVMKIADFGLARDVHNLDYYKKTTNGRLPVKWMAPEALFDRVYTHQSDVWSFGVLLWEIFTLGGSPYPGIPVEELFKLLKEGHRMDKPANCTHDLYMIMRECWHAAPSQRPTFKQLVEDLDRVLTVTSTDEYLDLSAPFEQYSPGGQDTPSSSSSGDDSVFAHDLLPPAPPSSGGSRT
Sequence of wild-type un-phosphorylated FGFR2 (P21802 22-821): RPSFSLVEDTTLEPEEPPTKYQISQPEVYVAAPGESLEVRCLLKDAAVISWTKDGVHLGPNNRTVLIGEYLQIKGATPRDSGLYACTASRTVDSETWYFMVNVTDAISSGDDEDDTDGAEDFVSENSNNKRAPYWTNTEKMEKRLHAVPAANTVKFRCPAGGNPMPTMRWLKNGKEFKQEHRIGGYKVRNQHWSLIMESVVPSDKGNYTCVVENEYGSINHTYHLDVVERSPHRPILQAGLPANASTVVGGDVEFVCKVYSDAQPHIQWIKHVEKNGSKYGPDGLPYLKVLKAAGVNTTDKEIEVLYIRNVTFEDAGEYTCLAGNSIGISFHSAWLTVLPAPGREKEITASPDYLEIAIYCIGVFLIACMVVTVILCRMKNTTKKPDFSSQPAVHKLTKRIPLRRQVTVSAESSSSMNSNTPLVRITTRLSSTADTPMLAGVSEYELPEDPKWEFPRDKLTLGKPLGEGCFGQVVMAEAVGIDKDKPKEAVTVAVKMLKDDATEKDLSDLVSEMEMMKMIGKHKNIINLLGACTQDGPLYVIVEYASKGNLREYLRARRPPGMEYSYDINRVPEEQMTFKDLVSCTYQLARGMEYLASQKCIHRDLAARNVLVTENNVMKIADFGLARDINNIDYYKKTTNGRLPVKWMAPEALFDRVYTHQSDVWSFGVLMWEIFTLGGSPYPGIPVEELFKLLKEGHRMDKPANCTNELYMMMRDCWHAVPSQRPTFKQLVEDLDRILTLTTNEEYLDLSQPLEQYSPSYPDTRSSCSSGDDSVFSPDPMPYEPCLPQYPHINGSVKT
Sequence of wild-type un-phosphorylated FGFR1 (P11362 22-822): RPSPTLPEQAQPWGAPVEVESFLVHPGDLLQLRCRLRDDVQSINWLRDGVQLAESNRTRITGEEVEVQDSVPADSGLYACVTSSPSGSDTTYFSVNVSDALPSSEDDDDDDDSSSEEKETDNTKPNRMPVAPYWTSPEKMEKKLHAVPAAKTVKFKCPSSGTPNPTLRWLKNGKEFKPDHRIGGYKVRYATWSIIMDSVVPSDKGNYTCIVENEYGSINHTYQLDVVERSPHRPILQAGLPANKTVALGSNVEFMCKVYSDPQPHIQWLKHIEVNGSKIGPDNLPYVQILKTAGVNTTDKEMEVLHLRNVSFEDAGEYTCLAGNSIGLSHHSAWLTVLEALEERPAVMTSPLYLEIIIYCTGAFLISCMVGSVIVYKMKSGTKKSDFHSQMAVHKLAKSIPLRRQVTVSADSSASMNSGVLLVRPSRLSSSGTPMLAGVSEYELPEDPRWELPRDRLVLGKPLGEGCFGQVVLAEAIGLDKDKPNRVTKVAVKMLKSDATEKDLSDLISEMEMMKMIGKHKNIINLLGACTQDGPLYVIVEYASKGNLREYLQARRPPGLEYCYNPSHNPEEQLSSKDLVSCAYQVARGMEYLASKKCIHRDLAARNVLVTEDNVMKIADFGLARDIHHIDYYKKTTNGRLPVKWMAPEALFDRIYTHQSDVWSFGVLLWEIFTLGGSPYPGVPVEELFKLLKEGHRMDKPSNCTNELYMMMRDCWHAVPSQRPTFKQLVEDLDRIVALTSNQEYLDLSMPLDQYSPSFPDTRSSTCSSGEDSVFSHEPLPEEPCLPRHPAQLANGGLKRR

`CNC(=O)c1cc(F)c(F)c(-c2cnc3cc(-c4cnn5c4CCC5)c(O[C@H]4CCOC4)nn23)c1` [Example 22, (S)-3-(7-(5,6-Dihydro-4H-pyrrolo[1,2-b]pyrazol-3-yl)-6-((tetrahydrofuran-3-yl)oxy)imidazo[1,2-b]pyridazin-3-yl)-4,5-difluoro-N-methylbenzamide]: the IC50 in test [1] is < 10 nM; in test [2], 10 to 100 nM; in test [3], < 10 nM; in test [4], 100 to 400 nM.
`CNC(=O)c1cc(-c2cnc3cc(-c4cnn(CCN5CCOCC5)c4)c(O[C@H]4CCOC4)nn23)c(F)c(C(F)F)c1` [Example 30, (S)-3-(Difluoromethyl)-4-fluoro-N-methyl-5-(7-(1-(2-morpholinoethyl)-1H-pyrazol-4-yl)-6-((tetrahydrofuran-3-yl)oxy)imidazo[1,2-b]pyridazin-3-yl)benzamide]: the 50% inhibitory concentration (IC50) in test [1] was < 10 nM; in test [2] it was 10 to 100 nM; in test [3], < 10 nM; in test [4], 10 to 100 nM.
